Measured values reported in patent US20110144159A1, “ETHER BENZYLIDENE PIPERIDINE ARYL CARBOXAMIDE COMPOUNDS USEFUL AS FAAH INHIBITORS” (Pfizer Inc, priority 2008, published 2011).

Biological target: T1, Human FAAH (Homo sapiens, UniProt O00519)
T1 construct: made in house
T1 sequence (O00519 32-579 limits assumed): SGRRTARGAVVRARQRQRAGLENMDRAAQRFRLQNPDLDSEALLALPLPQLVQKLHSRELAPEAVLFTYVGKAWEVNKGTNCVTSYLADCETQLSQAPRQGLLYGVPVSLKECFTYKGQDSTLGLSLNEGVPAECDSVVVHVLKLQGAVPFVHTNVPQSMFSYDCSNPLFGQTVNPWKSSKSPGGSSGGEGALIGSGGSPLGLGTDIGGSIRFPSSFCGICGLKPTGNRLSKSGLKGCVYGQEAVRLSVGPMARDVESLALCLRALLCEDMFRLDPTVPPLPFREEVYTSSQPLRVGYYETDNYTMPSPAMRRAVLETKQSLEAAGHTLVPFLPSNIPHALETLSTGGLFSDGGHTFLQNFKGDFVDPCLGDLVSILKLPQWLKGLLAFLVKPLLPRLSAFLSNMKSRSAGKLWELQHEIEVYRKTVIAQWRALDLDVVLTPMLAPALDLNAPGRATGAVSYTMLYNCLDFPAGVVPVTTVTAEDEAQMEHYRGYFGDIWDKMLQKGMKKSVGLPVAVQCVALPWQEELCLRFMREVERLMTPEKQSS
Test: FAAH assay (glutamate dehydrogenase-coupled, oleamide substrate, absorbance at 340 nm)
Format: biochemical
Conditions: irreversible inhibition potency
Description: A FAAH assay may be carried out in 384-well clear polystyrene plates in a total volume of 50 μl per well. All percents are by volume. To each well was placed the reaction mixture (40 μl) containing 1-4 nM FAAH, 50 mM NaPi, pH 7.4, 3 mM α-ketoglutarate, 0.15 mM NADH, 7.5 U/ml glutamate dehydrogenase, 2 mM ADP, 1 mM EDTA, and 0.1% Triton X-100 (The concentration shown for each component was the final concentration in the assay). To this mixture was added 5 μl of a compound of Examples 1 to 20 at various concentrations prepared in 50% DMSO (or 5 μl 50% DMSO for controls). This was immediately followed by the addition of 5 μl oleamide (500 μM) dissolved in 75% EtOH/25% DMSO and the reaction mixture was mixed for 1.5 min. The final concentrations of DMSO and EtOH in the assay are each 7.5%. The reactions was then incubated at 30° C. and the absorbance at 340 nm was collected over a period of 90 min with readings taken in 30-second intervals using SpectraMax Plus^384 Microplate Spectrophotometer (Molecular Devices, Sunnyvale, Calif.). Human FAAH used in the assay was prepared as described in the patent application WO 2006/067613. The purity of the enzyme used was greater than 98% based on an analysis by SDS-polyacrylamide gel electrophoresis followed by Coomassie Blue staining.
Initial velocity data (V) is obtained from the slopes of the initial progressive curves. They are plotted as a function of substrate concentration and fit to the Michaelis-Menten equation (1) using Prism (GraphPad Software, Inc., San Diego, Calif.) software to obtain Km and Vmax values.
To obtain potencies of irreversible inhibitors, progressive curves consistent with first order inhibition kinetics (two-step irreversible inhibition mechanism) are fit to equation (2) by nonlinear least squares regressions to determine kobs values at each inhibitor concentration, where [P]t is the absorbance at time t, V0 is a constant related to the steady state rate of the uninhibited reaction, and kobs is the first order rate constant for enzyme inactivation. The inhibitor dissociation constant (Ki) and the first order rate
constant of enzyme inactivation at infinite inhibitor concentration (kinact) are then obtained by fitting the kobs vs. [I] curves to equation (3).

Row | Structure (SMILES) | hFAAH KInact/K [M⁻¹ s⁻¹]
1 | O=C(Nc1cccnn1)N1CCC(=Cc2cccc(OC3CCOCC3)c2)CC1 [Example 44, N-pyridazin-3-yl-4-[3-(tetrahydro-2H-pyran-4-yloxy)benzylidene]piperidine-1-carboxamide] | 563
2 | O=C(Nc1cccnn1)N1CCC(=Cc2cccc(OCC3CCCO3)c2)CC1 (stereo not drawn) [Example 45, N-pyridazin-3-yl-4-[3-(tetrahydrofuran-2-ylmethoxy)benzylidene]piperidine-1-carboxamide] | 573
3 | CC(C)OCCOc1cccc(C=C2CCN(C(=O)Nc3cccnn3)CC2)c1 [Example 47, 4-[3-(2-isopropoxyethoxy)benzylidene]-N-pyridazin-3-ylpiperidine-1-carboxamide] | 11900
4 | CC(C)(C)CCOc1cccc(C=C2CCN(C(=O)Nc3cccnn3)CC2)c1 [Example 48, 4-[3-(3,3-dimethylbutoxy)benzylidene]-N-pyridazin-3-ylpiperidine-1-carboxamide] | 2580
5 | COC(C)(C)CCOc1cccc(C=C2CCN(C(=O)Nc3cccnn3)CC2)c1 [Example 49, 4-[3-(3-methoxy-3-methylbutoxy)benzylidene]-N-pyridazin-3-ylpiperidine-1-carboxamide] | 1290
6 | CCC(C)COc1cccc(C=C2CCN(C(=O)Nc3cccnn3)CC2)c1 (stereo not drawn) [Example 50, 4-[3-(2-methylbutoxy)benzylidene]-N-pyridazin-3-ylpiperidine-1-carboxamide] | 4500
7 | CCCCOc1cccc(C=C2CCN(C(=O)Nc3cccnn3)CC2)c1 [Example 51, 4-(3-butoxybenzylidene)-N-pyridazin-3-ylpiperidine-1-carboxamide] | 8350
8 | Cc1cccc(OCCOc2cccc(C=C3CCN(C(=O)Nc4cccnn4)CC3)c2)c1 [Example 52, 4-{3-[2-(3-methylphenoxy)ethoxy]benzylidene}-N-pyridazin-3-ylpiperidine-1-carboxamide] | 31600
9 | O=C(Nc1cccnn1)N1CCC(=Cc2cccc(OCC3CCOC3)c2)CC1 (stereo not drawn) [Example 53, N-pyridazin-3-yl-4-[3-(tetrahydrofuran-3-ylmethoxy)benzylidene]piperidine-1-carboxamide] | 1750
10 | Cc1cc(COc2cccc(C=C3CCN(C(=O)Nc4cccnn4)CC3)c2)no1 [Example 54, 4-{3-[(5-methylisoxazol-3-yl)methoxy]benzylidene}-N-pyridazin-3-ylpiperidine-1-carboxamide] | 1880
11 | CN1CCCCC1COc1cccc(C=C2CCN(C(=O)Nc3cccnn3)CC2)c1 (stereo not drawn) [Example 55, 4-{3-[(1-methylpiperidin-2-yl)methoxy]benzylidene}-N-pyridazin-3-ylpiperidine-1-carboxamide] | 35
12 | COC(COc1cccc(C=C2CCN(C(=O)Nc3cccnn3)CC2)c1)c1ccccc1 (stereo not drawn) [Example 56, 4-[3-(2-methoxy-2-phenylethoxy)benzylidene]-N-pyridazin-3-ylpiperidine-1-carboxamide] | 149
13 | O=C(Nc1cccnn1)N1CCC(=Cc2cccc(OCC3CC=CCC3)c2)CC1 (stereo not drawn) [Example 57, 4-[3-(cyclohex-3-en-1-ylmethoxy)benzylidene]-N-pyridazin-3-ylpiperidine-1-carboxamide] | 16300
14 | CO[C@@H](COc1cccc(C=C2CCN(C(=O)Nc3cccnn3)CC2)c1)c1ccccc1 [Example 58, 4-{3-[(2R)-2-methoxy-2-phenylethoxy]benzylidene}-N-pyridazin-3-ylpiperidine-1-carboxamide] | 473
15 | O=C(Nc1cccnn1)N1CCC(=Cc2cccc(OCCc3cnoc3)c2)CC1 [Example 60, 4-[3-(2-isoxazol-4-ylethoxy)benzylidene]-N-pyridazin-3-ylpiperidine-1-carboxamide] | 2190
16 | CC(C)C(C)Oc1cccc(C=C2CCN(C(=O)Nc3cccnn3)CC2)c1 (stereo not drawn) [Example 61, 4-[3-(1,2-dimethylpropoxy)benzylidene]-N-pyridazin-3-ylpiperidine-1-carboxamide] | 1420
17 | CC(C)CCOc1cccc(C=C2CCN(C(=O)Nc3cccnn3)CC2)c1 [Example 62, 4-[3-(3-methylbutoxy)benzylidene]-N-pyridazin-3-ylpiperidine-1-carboxamide] | 15200
18 | Cc1cc(COc2cccc(C=C3CCN(C(=O)Nc4cccnn4)CC3)c2)c(C(F)(F)F)o1 [Example 63, 4-(3-{[5-methyl-2-(trifluoromethyl)-3-furyl]methoxy}benzylidene)-N-pyridazin-3-ylpiperidine-1-carboxamide] | 131
19 | CCC(Oc1cccc(C=C2CCN(C(=O)Nc3cccnn3)CC2)c1)C(C)C (stereo not drawn) [Example 64, 4-[3-(1-ethyl-2-methylpropoxy)benzylidene]-N-pyridazin-3-ylpiperidine-1-carboxamide] | 379
20 | Cc1noc(C)c1COc1cccc(C=C2CCN(C(=O)Nc3cccnn3)CC2)c1 [Example 65, 4-{3-[(3,5-dimethylisoxazol-4-yl)methoxy]benzylidene}-N-pyridazin-3-ylpiperidine-1-carboxamide] | 130
21 | COCCOc1cccc(C=C2CCN(C(=O)Nc3cccnn3)CC2)c1 [Example 66, 4-[3-(2-methoxyethoxy)benzylidene]-N-pyridazin-3-ylpiperidine-1-carboxamide] | 503
22 | Cc1cccc(COc2cccc(C=C3CCN(C(=O)Nc4cccnn4)CC3)c2)n1 [Example 67, 4-{3-[(6-methylpyridin-2-yl)methoxy]benzylidene}-N-pyridazin-3-ylpiperidine-1-carboxamide] | 370
23 | O=C(Nc1cccnn1)N1CCC(=Cc2cccc(OCc3nccs3)c2)CC1 [Example 68, N-pyridazin-3-yl-4-[3-(1,3-thiazol-2-ylmethoxy)benzylidene]piperidine-1-carboxamide] | 452
24 | Cc1cc(COc2cccc(C=C3CCN(C(=O)Nc4cccnn4)CC3)c2)nn1C [Example 70, 4-{3-[(1,5-dimethyl-1H-pyrazol-3-yl)methoxy]benzylidene}-N-pyridazin-3-ylpiperidine-1-carboxamide] | 116
25 | O=C(Nc1cccnn1)N1CCC(=Cc2cccc(OCc3cccc(C(F)(F)F)n3)c2)CC1 [Example 71, N-pyridazin-3-yl-4-(3-{[6-(trifluoromethyl)pyridin-2-yl]methoxy}benzylidene)piperidine-1-carboxamide] | 294
26 | O=C(Nc1cccnn1)N1CCC(=Cc2cccc(OCCCC(F)(F)F)c2)CC1 [Example 72, N-pyridazin-3-yl-4-[3-(4,4,4-trifluorobutoxy)benzylidene]piperidine-1-carboxamide] | 16800
27 | O=C(Nc1cccnn1)N1CCC(=Cc2cccc(OCc3ccc(C(F)(F)F)cn3)c2)CC1 [Example 73, N-pyridazin-3-yl-4-(3-{[5-(trifluoromethyl)pyridin-2-yl]methoxy}benzylidene)piperidine-1-carboxamide] | 1470
28 | Cc1ccc(COc2cccc(C=C3CCN(C(=O)Nc4cccnn4)CC3)c2)cn1 [Example 74, 4-{3-[(6-methylpyridin-3-yl)methoxy]benzylidene}-N-pyridazin-3-ylpiperidine-1-carboxamide] | 188
29 | O=C(Nc1cccnn1)N1CCC(=Cc2cccc(OCCc3ccccc3)c2)CC1 [Example 75, 4-[3-(2-phenylethoxy)benzylidene]-N-pyridazin-3-ylpiperidine-1-carboxamide] | 36139
30 | O=C(Nc1cccnn1)N1CCC(=Cc2cccc(OCC3CCOCC3)c2)CC1 [Example 76, N-pyridazin-3-yl-4-[3-(tetrahydro-2H-pyran-4-ylmethoxy)benzylidene]piperidine-1-carboxamide] | 2548
